Article PMC7399337, “Biological Properties and Absolute Configuration of Flavanones From Calceolaria thyrsiflora Graham” (Frontiers in Pharmacology, 2020)
In brackets after ≈: the same amount, converted by molar mass.

Experiments:
[1] = tested on: A. tumefaciens; test: Antibacterial MIC, broth microdilution, phytopathogens; assay type: cell-based; conditions: Agrobacterium tumefaciens; GN A. tumefaciens; 24 h; tested 12.5 to 1,600 µg/ml; read-out: Minimum inhibitory concentration (MIC)
Method: (§1) The minimum inhibitory concentrations (MIC) were determined using the broth microdilution method ([Díaz et al., 2018]). Two-fold serial dilutions were added to the wells of sterile 96-well plates containing inoculated BBL™ Mueller Hinton II Broth medium suspensions of bacterial cells (1.0 x10^5 UFC/ml) of Agrobacterium tumefaciens and Bacillus subtilis. The final concentrations ranged from 12.5 to 1,600 µg/ml. Ethanol (1%) was used as the negative control and chloramphenicol (CALBIOCHEM; U.S. and Canada) was used as the positive control against both bacteria. MICs were determined according to the OD600 obtained in a Thermo Scientific Multiskan GO 96-well plate photometer. […] Assays were done in triplicate.

[2] = tested on: B. subtilis; test: as above; assay type: cell-based; conditions: Bacillus subtilis; GP B. subtilis; 24 h; tested 12.5 to 1,600 µg/ml; read-out: Minimum inhibitory concentration (MIC)
Method: as §1

In the case of `O=C(N[C@H](CO)[C@H](O)c1ccc([N+](=O)[O-])cc1)C(Cl)Cl` [Chloramphenicol], the MIC [1] is reported as 12.5 µg/mL (≈ 38.7 µM) and the MIC [2] is reported as 12.5 µg/mL (≈ 38.7 µM).
